Source: patent US8580815B2, “Derivatives of azaindoles as inhibitors of protein kinases ABL and SRC” (Oribase Pharma, priority 2009, dated 2013)
Like-named read-outs stand apart in the source and are kept apart here.

What was measured:
[1] = target: Abl kinase (h) (Homo sapiens (Human), UniProt P00519); assay: Cerep kinase profiling, HTRF assay, Abl kinase; assay type: biochemical
Protocol: (§1) The inhibitory activity of the compounds of the chemical series on different protein kinases was evaluated by Cerep (Cerep Kinase Profiling Service; www.cerep.com). The kinases used in the tests in vitro are human recombinant proteins expressed in human cells, insect cells or in bacteria. […] The activity of the kinase was then detected by an HTRF assay. The HTRF assay (CisBio International) is based on fluorescence transfer, using Europium (Eu3+) cryptate and XL665 respectively as donor and acceptor. When the biotinylated or tagged substrate is phosphorylated by the kinase, it reacts with a cryptate-labelled phosphospecific antibody. Addition of Streptavidin-XL665, SA-XL665, (or anti-tag antibody XL665) leads to juxtaposition of the cryptate and of the fluorophore XL665, which is reflected in fluorescence resonance energy transfer (FRET). The intensity of FRET depends on the quantity of cryptate-labelled antibody bound to the substrate, which is proportional to the quantity of phosphorylated substrate (Mathis, G. Probing molecular interactions with homogeneous techniques based on rare earth cryptates and fluorescence energy transfer.

[2] = target: c-kit kinase (h) (Homo sapiens (Human), UniProt P10721); assay: Cerep kinase profiling, HTRF assay, c-kit kinase; assay type: biochemical; settings: compound incubated at 10 μM; read-out: Percentage inhibition of kinase c-kit
Protocol: as §1, with “bacteria. [table]” for “bacteria.”, “transfer. Clin Chem 41, 1391-7 (1995)).” for “transfer.”

[3] = target: Src kinase (h) (Homo sapiens (Human), UniProt P12931); assay: Cerep kinase profiling, HTRF assay, Src kinase; assay type: biochemical
Protocol: as §1

[4] = target: AurA/Aur2 kinase (h) (Homo sapiens (Human), UniProt O14965); assay: Cerep kinase profiling, HTRF assay, Aurora-A kinase; assay type: biochemical; settings: compound incubated at 10 μM; read-out: Percentage inhibition of kinase Aurora-A
Protocol: as §1, with “bacteria. [table]” for “bacteria.”, “transfer. Clin Chem 41, 1391-7 (1995)).” for “transfer.”

[5] = target: PDGFRα kinase (h) (Homo sapiens (Human), UniProt P16234); assay: Cerep kinase profiling, HTRF assay, PDGFRα kinase; assay type: biochemical; settings: compound incubated at 10 μM; read-out: Percentage inhibition of kinase PDGFR-α
Protocol: as §1, with “bacteria. [table]” for “bacteria.”, “transfer. Clin Chem 41, 1391-7 (1995)).” for “transfer.”

[6] = target: Abl WT (Homo sapiens (Human), UniProt P00519); assay: Reaction Biology Corp. kinase assay, Abl WT; assay type: biochemical; settings: Table 11; ATP at 10 μM; read-out: IC50 in nM Abl WT
Protocol: (§2) 4 compounds were tested for their capacity to inhibit various mutated kinases AbI (American company, Reaction Biology Corp.).

[7] = target: Abl Y253F (Homo sapiens (Human), UniProt P00519, Y253F); assay: Reaction Biology Corp. kinase assay, mutated Abl Y253F; assay type: biochemical; settings: Table 11; ATP at 10 μM
Protocol: as §2

[8] = target: Abl T315I (Homo sapiens (Human), UniProt P00519, T315I); assay: Reaction Biology Corp. kinase assay, mutated Abl T315I; assay type: biochemical; settings: Table 11; ATP at 10 μM; read-out: IC50 in nM Abl T315I
Protocol: as §2

[9] = tested on: K562 cells expressing kinase Bcr-AbI; assay: Inhibition of cellular proliferation (MTT), K562 cells; assay type: cell-based, human; settings: for IC50: Homo sapiens
Protocol: Cellular tests were carried out at the Montpellier Cancer Research Centre. The inhibition of proliferation by our compounds was analysed on 2 cell lines (U937 and K562) by calculating the IC50, testing 6 concentrations in triplicate for each of the compounds and for each line.
Cells in exponential phase were seeded in 96-well plates at a concentration of 10^4 cells/100 μL/well. The final concentrations of compound in the well in contact with the cells were 0.1; 0.3; 0.9; 3.3; 10; 30; 90 μM. […]

[10] = tested on: K562 cells expressing kinase Bcr-AbI; settings: known activity; BCR-Abl+ cells, patient with CML; cited from earlier work
[11] = tested on: U937 cells (BCR-Abl−)
[12] = tested on: U937 cells (BCR-Abl−); assay: cells; settings: Homo sapiens, U-937, 72 h
[13] = 10 μM, compounds tested by Cerep, read-out: % inhibition of kinase activity, Abl WT (category)
[14] = Table 6, compound incubated at 10 μM, read-out: Percentage inhibition of kinase Abl
[15] = Table 8, compound incubated at 10 μM, read-out: Percentage inhibition of kinase Abl
[16] = Table 9, Cerep, 5 concentrations 10^−10 M to 10^−4 M, read-out: IC50 in M Abl
[17] = compounds tested by Cerep, read-out: IC50 on kinase Abl WT (category)
[18] = 10 μM, compounds tested by Cerep, read-out: % inhibition of kinase activity, Src (category)
[19] = compound incubated at 10 μM, read-out: Percentage inhibition of kinase c-Src
[20] = K562, 72 h, read-out: IC50 at 72 h on K562 (category), 72 h incubation

Chain of Src kinase (h) (P12931 whole entry, looked up): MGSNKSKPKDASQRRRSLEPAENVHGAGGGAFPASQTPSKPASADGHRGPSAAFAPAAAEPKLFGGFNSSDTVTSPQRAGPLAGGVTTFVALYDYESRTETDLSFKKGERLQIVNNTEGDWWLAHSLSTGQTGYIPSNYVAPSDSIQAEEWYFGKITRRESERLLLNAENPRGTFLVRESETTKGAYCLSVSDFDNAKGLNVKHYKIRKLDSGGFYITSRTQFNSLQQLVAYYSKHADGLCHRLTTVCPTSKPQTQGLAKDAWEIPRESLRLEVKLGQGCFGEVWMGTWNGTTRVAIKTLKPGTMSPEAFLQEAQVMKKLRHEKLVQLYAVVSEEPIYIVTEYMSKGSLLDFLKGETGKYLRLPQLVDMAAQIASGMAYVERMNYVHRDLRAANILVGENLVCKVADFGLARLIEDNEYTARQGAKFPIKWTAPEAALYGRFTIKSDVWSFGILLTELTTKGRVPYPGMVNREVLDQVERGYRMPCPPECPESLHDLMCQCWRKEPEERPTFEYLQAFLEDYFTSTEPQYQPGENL
Chain of c-kit kinase (h) (P10721 26-976): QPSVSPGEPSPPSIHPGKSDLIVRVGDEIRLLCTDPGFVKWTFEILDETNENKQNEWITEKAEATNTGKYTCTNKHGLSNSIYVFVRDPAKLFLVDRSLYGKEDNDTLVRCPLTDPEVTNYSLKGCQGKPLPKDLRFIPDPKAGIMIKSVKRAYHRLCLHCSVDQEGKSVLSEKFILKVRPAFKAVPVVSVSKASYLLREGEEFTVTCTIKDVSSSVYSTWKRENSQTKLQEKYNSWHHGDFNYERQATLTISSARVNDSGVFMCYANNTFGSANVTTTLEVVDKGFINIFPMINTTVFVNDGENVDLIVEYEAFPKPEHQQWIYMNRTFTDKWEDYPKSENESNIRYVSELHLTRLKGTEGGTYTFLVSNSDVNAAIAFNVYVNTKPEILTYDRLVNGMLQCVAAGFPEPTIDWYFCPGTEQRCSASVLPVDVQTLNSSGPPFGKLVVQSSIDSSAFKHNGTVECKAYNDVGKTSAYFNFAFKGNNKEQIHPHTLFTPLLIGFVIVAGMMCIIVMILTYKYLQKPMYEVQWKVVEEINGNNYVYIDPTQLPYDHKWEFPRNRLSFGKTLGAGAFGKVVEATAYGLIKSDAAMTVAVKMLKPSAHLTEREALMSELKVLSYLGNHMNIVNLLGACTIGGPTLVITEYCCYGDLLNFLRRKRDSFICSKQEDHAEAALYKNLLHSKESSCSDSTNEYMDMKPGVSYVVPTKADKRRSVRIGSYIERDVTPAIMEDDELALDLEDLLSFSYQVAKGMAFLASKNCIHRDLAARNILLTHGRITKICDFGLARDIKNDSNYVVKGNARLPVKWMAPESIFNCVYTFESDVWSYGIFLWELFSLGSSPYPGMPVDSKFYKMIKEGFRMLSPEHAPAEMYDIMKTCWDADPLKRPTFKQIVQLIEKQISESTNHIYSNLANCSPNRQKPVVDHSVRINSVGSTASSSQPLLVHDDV
Chain of PDGFRα kinase (h) (P16234 24-1089): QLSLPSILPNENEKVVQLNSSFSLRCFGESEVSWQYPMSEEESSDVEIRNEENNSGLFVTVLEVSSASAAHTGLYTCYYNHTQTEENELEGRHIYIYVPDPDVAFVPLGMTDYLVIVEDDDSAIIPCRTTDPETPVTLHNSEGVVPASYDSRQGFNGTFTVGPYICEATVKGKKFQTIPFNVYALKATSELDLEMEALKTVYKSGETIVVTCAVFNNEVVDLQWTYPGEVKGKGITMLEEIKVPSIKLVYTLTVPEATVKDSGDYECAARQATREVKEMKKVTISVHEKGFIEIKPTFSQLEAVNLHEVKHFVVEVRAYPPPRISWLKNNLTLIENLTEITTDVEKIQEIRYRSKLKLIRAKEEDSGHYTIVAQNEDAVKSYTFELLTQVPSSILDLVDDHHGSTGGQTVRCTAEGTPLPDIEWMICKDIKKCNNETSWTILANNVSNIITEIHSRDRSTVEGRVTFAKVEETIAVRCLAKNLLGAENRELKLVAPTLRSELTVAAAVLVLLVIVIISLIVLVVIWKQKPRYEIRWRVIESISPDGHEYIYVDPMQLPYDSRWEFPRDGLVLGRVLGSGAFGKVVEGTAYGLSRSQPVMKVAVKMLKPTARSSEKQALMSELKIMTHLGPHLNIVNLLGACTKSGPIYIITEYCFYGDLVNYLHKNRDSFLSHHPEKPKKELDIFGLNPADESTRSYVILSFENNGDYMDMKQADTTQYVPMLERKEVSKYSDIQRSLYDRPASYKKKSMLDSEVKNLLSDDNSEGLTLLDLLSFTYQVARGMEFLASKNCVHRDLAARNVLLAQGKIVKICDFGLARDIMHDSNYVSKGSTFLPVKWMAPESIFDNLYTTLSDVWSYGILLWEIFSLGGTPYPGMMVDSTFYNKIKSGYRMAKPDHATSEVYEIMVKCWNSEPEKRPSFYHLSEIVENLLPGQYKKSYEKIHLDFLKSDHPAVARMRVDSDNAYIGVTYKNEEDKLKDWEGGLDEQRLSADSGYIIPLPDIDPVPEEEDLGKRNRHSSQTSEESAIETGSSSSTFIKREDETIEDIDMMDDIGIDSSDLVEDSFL
Chain of AurA/Aur2 kinase (h) (O14965 whole entry): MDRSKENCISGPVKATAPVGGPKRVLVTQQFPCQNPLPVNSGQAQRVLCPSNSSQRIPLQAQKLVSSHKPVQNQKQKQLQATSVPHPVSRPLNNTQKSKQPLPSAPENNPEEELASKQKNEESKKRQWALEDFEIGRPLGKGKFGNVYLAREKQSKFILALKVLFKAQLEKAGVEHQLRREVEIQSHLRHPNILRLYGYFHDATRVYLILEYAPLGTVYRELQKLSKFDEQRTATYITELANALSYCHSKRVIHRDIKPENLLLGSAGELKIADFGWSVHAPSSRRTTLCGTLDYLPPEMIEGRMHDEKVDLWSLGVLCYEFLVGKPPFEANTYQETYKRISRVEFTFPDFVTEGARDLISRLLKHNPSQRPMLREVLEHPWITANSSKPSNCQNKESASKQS

inhibition at 10 µM [1, 13] [%]	inhibition at 10 µM [1, 14] [%]	inhibition at 10 µM [1, 15] [%]	inhibition at 10 µM [3, 18] [%]	inhibition at 10 µM [3, 19] [%]	SMILES	also measured
> 50	94	94	> 50	59	COCc1cc2cc(NC(=O)c3ccccc3Br)cnc2[nH]1 [ND0021, 2-bromo-N-(2-(methoxymethyl)-1H-pyrrolo[2,3-b]pyridin-5-yl)benzamide]	–
> 50	94	94	> 50	74	COC(=O)c1cc2cc(NC(=O)c3c(F)cccc3OC)cnc2[nH]1 [ND0047, Methyl 5-(2-fluoro-6-methoxybenzamido)-1H-pyrrolo[2,3-b]pyridine-2-carboxylate]	–
> 50	100	100	> 50	90	CN(C)CCCNC(=O)c1cc2cc(NC(=O)c3ccccc3Br)cnc2[nH]1 [ND0009, 5-(2-bromobenzamido)-N-(3-(dimethylamino)propyl)-1H-pyrrolo[2,3-b]pyridine-2-carboxamide]	inhibition at 10 µM [2]: 44%; IC50 ([3]; Table 9, Cerep, read-out: IC50 in M c-Src): 2200 nM; IC50 ([3]; compound tested by Cerep, read-out: IC50 on kinase Src (category)): 100 to 10000 nM; inhibition at 10 µM [4]: 5%; inhibition at 10 µM [5]: 11%; activity on the Bcr-AbI+ cells (K562), in words [9]: active; IC50 ([9]; K562, 72 h, Table 12, 72 h of treatment, MTT, read-out: IC50 (μM) K562): 6 µM; IC50 [9, 20]: > 10 µM; IC50 ([9]; K562, incubation time not stated (24 h and/or 72 h), read-out: IC50 for the K562 Bcr-AbI kinase (category)): > 10 µM; activity on the Bcr-AbI− cells (U937), in words [11]: not on the Bcr-AbI− cells; IC50 ([12]; read-out: IC50 (μM) U937, Table 12, 72 h of treatment, MTT): > 100 µM; IC50 ([12]; read-out: IC50 at 72 h on U937 (category), 72 h incubation): > 10 µM
> 50	94	94	> 50	71	O=C(Nc1cnc2[nH]c(CNc3ccc(O)cc3)cc2c1)c1ccccc1Br [ND0038]	IC50 [1, 16]: 2600 nM; IC50 [1, 17]: 100 to 10000 nM

The next lines start with the compound.

SMILES	inhibition at 10 µM [1, 13] [%]	inhibition at 10 µM [1, 14] [%]	inhibition at 10 µM [1, 15] [%]	inhibition at 10 µM [3, 18] [%]	inhibition at 10 µM [3, 19] [%]	also measured
COC(=O)c1cc2cc(NC(=O)c3ccccc3Br)cnc2[nH]1 [ND0020, Methyl 5-(2-bromobenzamido)-1H-pyrrolo[2,3-b]pyridine-2-carboxylate]	> 50	85	85	> 50	50	IC50 [1, 16]: 460 nM; IC50 [1, 17]: 100 to 10000 nM; inhibition at 10 µM [2]: 10%; inhibition at 10 µM [4]: 5%; inhibition at 10 µM [5]: 0%; IC50 [6]: 44.6 nM; IC50 [7]: < 10 nM; IC50 [8]: > 100000 nM; IC50 ([9]; K562, 24 h, 24 h incubation, read-out: IC50 at 24 h on K562 (category)): 1 to 10 µM; IC50 [9, 20]: 1 to 10 µM
Cc1ccc(NC(=O)c2ccc(CN3CCN(C)CC3)cc2)cc1Nc1nccc(-c2cccnc2)n1 [Imatinib]	–	–	–	–	–	Action of Imatinib on K562 [10]: Sensitive
O=C(Nc1cnc2[nH]c(Cc3ccc[nH]3)cc2c1)c1ccccc1Br [ND0037]	> 50	97	97	> 50	72	–
